Measurements reported in publication PMC10666548, “Identification of the bacterial metabolite aerugine as potential trigger of human dopaminergic neurodegeneration” (Environment international, 2023).

Experiments:
[1] = test system: Hek293FT; test: Cell line viability, resazurin reduction, 72 h; assay type: cell-based, human; details: at <100 μM
Experimental: (§1) Hek293FT were acquired from ThermoFisher Scientific (cat. no. R70007). HepG2 were acquired from ATCC (HB-8065). HeLa were acquired from ATCC (CCL-2). The cell culture was performed as described previously ([Dolde et al., 2021]). Briefly, the cell lines were kept in DMEM Glutamax with 10% FCS and 1% penicillin/streptomycin at 37 °C with 5% CO2. They were grown in normal cell culture flasks (Sarstedt) to 75–90% confluence and seeded into standard 96-well plates 24 h prior to compound treatment. The cells were treated by performing a medium change to Advanced DMEM/F12 supplemented with 2 mM L-glutamine containing the indicated compound concentrations.
(§2) The assay was performed as described previously ([Schildknecht et al., 2009]). In brief, cells were stained with 10 μg/ml resazurin and incubated for 30 min at 37 °C and 5% CO2. The fluorescence of resazurin was detected with an excitation wavelength of 530 nm, using a 590 nm long-pass filter to record the emission.
(§3) Fig. 3. Cell type specificity of aerugine cytotoxicity. A Cultures of LUHMES neurons were used on d0 (proliferating, blue), d2 (immature, black) or d6 (mature, red) of differentiation for cytotoxicity testing. Cells were exposed to nine serial dilutions of synthetic aerugine. The cell viability was assessed 24 h later by calcein-AM & H-33342 staining and high content imaging. […] Dotted lines at 4 μM indicate the average EC50 for mature LUHMES. […] They were treated for 72 h with synthetic aerugine. The overall cell viability was assessed by measuring resazurin reduction in technical triplicates. Data are presented as means ± range of two biological replicates (different experiments). C Three iPSC-derived neuronal cell types were treated for 24 h with synthetic aerugine. The cell viability was assessed 24 h later by calcein-AM & H-33342 staining and high content imaging. Data are presented as means ± SEM of three biological replicates (different experiments). D Lack of cytotoxic or bacteriostatic effects of aerugine (20 μM) on exemplary gram-positive and gram-negative microbes: The growth characteristics of Enterococcus faecalis (gram-positive) and Neisseria gonorrhoeae MS11 (gram-negative) were followed during the log growth phase in their respective culture media. Data are from one biological replicate.

[2] = test system: HepG2; test: Cell line viability, resazurin reduction, 72 h; assay type: cell-based, human; details: HepG2, 72 h, at <100 μM
Experimental: as §1, §2, §3

[3] = test system: HeLa; test: Cell line viability, resazurin reduction, 72 h; assay type: cell-based, human; details: at <100 μM
Experimental: as §1, §2, §3

[4] = test system: Neisseria gonorrhoeae MS11; test: Bacterial growth assay; assay type: cell-based; details: 20 μM, log growth phase
Experimental: Neisseria gonorrhoeae MS11 was cultured in PPM medium (15 g/l Proteose Pepton, 1 g/l soluble starch, 5 g/l NaCl, 4 g/l KH2PO4, 1 g/l K2HPO4, pH 7.5) for liquid culture and on GC plates (BD Difco™ GC Medium Base), both supplemented with 1 % vitamin mix (100 g/l glucose, 10 g/l glutamine, 26 g/l L-cysteine, 100 mg/l carboxylase, 250 mg/l NAD, 500 μl/l Fe(NO3)3, 150 mg/l arginine, 3 mg/l thiamine-HCl, 10 mg/l vitamine B12, 13 mg/l p-amino benzoic acid, 1.1 g/l L-cystine, 1 g/l adenine, 500 mg/l uracil, 30 mg/l guanine). Strains were either cultivated at 37 °C and 220 rpm (liquid medium) or at 37 °C and 5 % CO2 (solid medium).
Bacteria were grown as described above on solid medium. Prior to substance exposure, bacteria were pre-cultured in liquid medium for at least 2 h. Optical density was determined and a volume equal to an OD550 of 0.2 for Neisseria gonorrhoeae MS11 (equates a final OD550 of 0.04) and an OD600 of 0.2 for Enterococcus faecalis (equates a final OD600 of 0.04) was inoculated into 5 ml of the respective liquid medium. Compound was added at the indicated amounts. […] Samples were incubated for either 10.5 h, until they reached a stationary phase (three measured values in stationary phase) or until they reached an OD of 2.5. Optical density was determined every 0.5 h at OD550 for Neisseria gonorrhoeae MS11 and at OD600 for Enterococcus faecalis. […]

[5] = Cytotoxicity to proliferating (d0) LUHMES cells, calcein-AM & H-33342 imaging; assay type: cell-based; details: human, proliferating LUHMES d0, 24 h exposure, read-out: EC50 (half-maximal cytotoxic potency), cell viability
Experimental: LUHMES cells were cultivated as described previously ([Krug et al., 2013]; [Schildknecht et al., 2013]; [Scholz et al., 2011]). In brief, cells were grown in standard cell culture flasks pre-coated with 50 μg/ml PLO and 1 μg/ml fibronectin in water for at least 3 h at 37 °C. The maintenance culture was kept in proliferation medium consisting of advanced DMEM/F12 with 2 mM L-glutamine, 1x N2-supplement, and 40 ng/ml FGF-2. The cells were incubated at 37 °C with 5% CO2 and passaged trice a week when reaching 75–90% confluence. They were used up to passage 18. […]
Neurite area (NA) and viability (V) were assessed as described previously ([Stiegler et al., 2011]). […] Image acquisition was performed using an Array-Scan VTI HCS Reader (Cellomics, PA, USA) equipped with a Hamamatsu ORCA-ER camera. […]
Nuclei were identified in channel 1 depending on intensity, area, size and shape. […] The NA was automatically calculated by excluding the VCSAs from the VCSs. […]
Fig. 3. […] The cell viability was assessed 24 h later by calcein-AM & H-33342 staining and high content imaging. […] The overall cell viability was assessed by measuring resazurin reduction in technical triplicates. […] The cell viability was assessed 24 h later by calcein-AM & H-33342 staining and high content imaging. […]

OCC1CSC(c2ccccc2O)=N1 (centres unmarked) [aerugine, 2-[4-(hydroxymethyl)-4,5-dihydro-1,3-thiazol-2-yl]phenol]
toxicity (overall cell viability, resazurin reduction) [1]: no toxicity was observed | toxicity (overall cell viability, resazurin reduction) ([1]; listed as Aerugine): non-toxic | toxicity (overall cell viability, resazurin reduction) [2]: no toxicity was observed | toxicity (overall cell viability, resazurin reduction) ([2]; listed as Aerugine): non-toxic | toxicity (overall cell viability, resazurin reduction) [3]: no toxicity was observed | toxicity (overall cell viability, resazurin reduction) ([3]; listed as Aerugine): non-toxic | viability or growth [4]: not affected in viability or growth | EC50 at 24 h [5]: 13 ± 0.2 µM
